What was measured:
[1] = tested on: colon cancer cell line DLD-1; assay: Trans-well cancer cell migration inhibition, DLD-1; format: cell-based, human; settings: Homo sapiens; Colon cancer cell DLD-1, trans-well, 16 hours; read-out: Concentration inhibiting migration of cancer cells by 50% (IC50 value)
Description: (§1) In order to analyze cancer cell migration inhibitory activity of CG-608, CG-609 or CG-618 prepared in Examples 1, 2, or 9, cell migration inhibitory activity was measured using a trans-well by targeting a colon cancer cell line DLD-1 (ATCC-CCL-221), pancreatic cancer cell lines AsPc-1 (ATCC-CCL-1682). CFPAC-1 (ATCC-CCL-1918). Panc-1 (ATCC-CCL-1469), and Miapaca-2 (ATCC-CCL-1420), a skin cancer cell line A375-P (ATCC-CCL-3224), lung cancer cell lines HCC-827 (ATCC-CCL-2868), A549 (ATCC-CCL-185), and NCI-H460 (ATCC-CCL-177), a prostate cancer cell line DU145 (ATCC-HTB-81), a stomach cancer cell line NuGC-3 (JCRB0822), and an ovarian cancer cell line SKOV-3 (ATCC-HTB-77).
(§2) First, the number of DLD-1 cells was measured using a hemocytometer in an RPMI medium without FBS. Thereafter, the trans-well was placed on a 24-well plate and 8×10^4 […] of cells were added. In an empty space with the trans-well on the well plate, […] of an RPM medium having 10% FBS containing CG-608, CG-609, or CG-618 was added and cultured in a CO2 incubator at 37° C. for 16 hours. After culture, […] of crystal violet (5 mg/mL of 20% […] was added to each well of the 24-well plate and the trans-well was dyed at room temperature for 30 minutes. The dyed trans-well was washed with PBS and non-migrated cells were wiped off with cotton swabs. The prepared sample was photographed with an inverted microscope mounted with a digital camera (TE 300, Nikon. Japan) and then the number of migrated cells was counted. The degree of inhibiting cell migration was calculated by Equation 1 for a group treated with the sample compared to a control group (DMSO).
(§3) In Equation 1, ‘the number of migrated cells treated with sample’ refers to the number of migrated cells measured by treating CG-608 or CG-618 of Example 1, and ‘the number of migrated cells of a control sample’ refers to the number of migrated cells measured by treating only 1% dimethyl sulfoxide (DMSO) instead of the compound.

[2] = tested on: pancreatic cancer cell line AsPc-1; assay: Trans-well cancer cell migration inhibition, AsPc-1; format: cell-based; settings: Homo sapiens, ASPC1; Pancreatic cancer cell line AsPc-1; read-out: Concentration inhibiting migration of cancer cells by 50% (IC50 value)
Description: as §1, §2, §3

[3] = tested on: skin cancer cell line A375-P; assay: Trans-well cancer cell migration inhibition, A375-P; format: cell-based; settings: Homo sapiens, A375P; Skin cancer cell A375-P; read-out: Concentration inhibiting migration of cancer cells by 50% (IC50 value)
Description: as §1, §2, §3

[4] = tested on: prostate cancer cell line DU145; assay: Trans-well cancer cell migration inhibition, DU145; format: cell-based; settings: Homo sapiens, DU-145; Prostate cancer cell DU145; read-out: Concentration inhibiting migration of cancer cells by 50% (IC50 value)
Description: as §1, §2, §3

[5] = tested on: lung cancer cell line HCC-827; assay: Trans-well cancer cell migration inhibition, HCC-827; format: cell-based; settings: Homo sapiens, HCC827; Lung cancer cell HCC-827; read-out: Concentration inhibiting migration of cancer cells by 50% (IC50 value)
Description: as §1, §2, §3

[6] = tested on: stomach cancer cell line NuGC-3; assay: Trans-well cancer cell migration inhibition, NuGC-3; format: cell-based; settings: Homo sapiens; Gastric cancer cell NuGC-3; read-out: Concentration inhibiting migration of cancer cells by 50% (IC50 value)
Description: as §1, §2, §3

[7] = Acute toxicity test for oral administration to rats; settings: rat, in vivo, 1000 mg/kg; SD rats, single oral dose; read-out: Minimum dose (LD50) of oral administration
Description: Six-week-old specific pathogen free (SPF) SD-based rats were divided by two per group and then CG-608, CG-609, or CG-618 prepared in Example 1, 2, or 9 was dissolved in distilled water for injection and orally administered to rats once in a dose of 1000 mg/kg.

[8] = tested on: colon cancer cells DLD-1; assay: Cancer cell invasion inhibition (Matrigel trans-well), DLD-1; format: cell-based; settings: Homo sapiens, DLD-1; 5 μM
Description: In order to analyze cancer cell invasion inhibitory activity of CG-609 or CG-618 prepared in Example 1 or 9, cell invasion inhibitory activity using a trans-well was measured by targeting colon cancer cell line DLD-1 cells or pancreatic cancer cell line AsPc-1 cells.
Matrigel was diluted by 1/5 using an RPMI medium without FBS and then […] was put into each trans-well. The cells were coated in a […] for 2 hours. The number of DLD-1 cells was measured using a hemocytometer in an RPMI medium without FBS. Thereafter, the coated trans-well was placed on a 24-well plate and 8×10^4 […] of cells were added. In an empty space of the trans-well on the well plate, […] of an RPMI medium having 10% FBS containing (S)-(−)-benproperine was added and cultured in a CO2 incubator at 37° C. for 16 hours. After culture, […] of crystal violet (5 mg/mL of 20% MeOH) was added to each well of the 24-well plate and the trans-well was dyed at room temperature for 30 minutes. The dyed trans-well was washed with PBS and non-migrated cells were wiped off with cotton swabs. The prepared sample was photographed with an inverted microscope mounted with a digital camera (TE 300, Nikon, Japan), and then the number of migrated cells was counted. The degree of inhibiting cell migration was calculated for a group treated with the sample compared to a control group (DMSO).

Row | SMILES | IC50 [1] | IC50 [2] | IC50 [3] | IC50 [4] | IC50 [5] | IC50 [6] | LD50 [7] | inhibition at 5 µM [8]
1 | CC1CCCCN1[C@@H](C)COc1ccccc1Cc1ccccc1 (stereo partly drawn) [CG-608, 1-((S)-1-(2-benzylphenoxy)propan-2-yl)-2-methylpiperidine] | 200 nM | 250 nM | 1.5 µM | 5 µM | 1.5 µM | 2000 nM | ≥ 1000 mg/kg | –
2 | CC(COc1ccccc1Cc1ccccc1)N1CCCCC1 (centres unmarked) [benproperine, reference compound] | 2000 nM | 3000 nM | 7 µM | 20 µM | 20 µM | < 20000 nM | – | 50%
